Source: patent publication US20100144845A1, “OLIGONUCLEOTIDE SYSTEMS FOR TARGETED INTRACELLULAR DELIVERY” (Massachusetts Institute of Technology, priority 2006, published 2010)

Columns and labels:
LNCaP cells = assay: MTT cell viability assay; assay type: cell-based; conditions: drug concentration 5 μM, Dox to RNA 1:1, treated approximately one hour, total of 72 hours
Protocol: (§1) Doxorubicin (Dox), a cytotoxic drug commonly used in chemotherapy that can dock into double-stranded portions of nucleic acids because of the stacking capacity of its many-ringed structure, was “loaded” onto oligonucleotides at a molar ratio of 1:1, Dox to RNA, e.g., as described in Bagalkot, V. et al., Angewandte Chemie (International ed 45, 8149-8152 (2006) (the drug concentration was 5 μM). MTT assays were performed essentially as previously described, e.g., in Akaishi, S. et al., The Tohoku Journal of Experimental Medicine 175, 29-42 (1995). Briefly, 100 μl aliquots of LNCaP or PC3 cells (5×10^3 cells/mL) were seeded in 24-well plates (n=5), allowed to grow overnight and treated, for approximately one hour, with 100 μL of either a) nothing; b) Dox alone; c) Dox conjugated with the initial library; d) Dox conjugated to the Rd-12 population of the LNCaP selection; or e) Dox conjugated to the Rd-12 population of the PC3 selection; then washed and further incubated, in fresh media, for a total of 72 hours. The cells were then washed twice with EBSS, treated with 50 μL MTT solution for 4 hours, and lysed with MTT-detergent overnight. The absorbance was measured the following day using micro-plate reader at 570 nm.

PC3 cells = assay: MTT cell viability assay; assay type: cell-based; conditions: drug concentration 5 μM, Dox to RNA 1:1, treated approximately one hour, total of 72 hours
Protocol: as §1

## COc1cccc2c1C(=O)c1c(O)c3c(c(O)c1C2=O)C[C@@](O)(C(=O)CO)C[C@@H]3O[C@H]1C[C@H](N)[C@H](O)[C@H](C)O1 [Dox, Doxorubicin]
LNCaP cells
  effectiveness (cytotoxicity) in MTT assay: equipotent against PC3 and LNCaP cells
PC3 cells
  effectiveness (cytotoxicity) in MTT assay: equipotent against PC3 and LNCaP cells
